Measurements from US12492188B2, “1H-benzo[D]imidazole derivatives as TLR9 inhibitors for the treatment of fibrosis” (BRISTOL-MYERS SQUIBB COMPANY, priority 2020, dated 2025).
Read-outs that look alike come from different tables or passages of the source.

Legend:
Type in all cases: cell-based
human TLR9 = target: T1, human TLR9 (Homo sapiens, UniProt Q9NR96); assay: TLR9 inhibition reporter assay (HEK-Blue cells, secreted embryonic alkaline phosphatase reporter); conditions: HEK-Blue cells overexpressing human TLR9, stimulated with ODN2006 5 nM
T1 construct: host or cells: HEK-Blue cells (HEK293-derived reporter line)
T1 sequence (Q9NR96 26-1032): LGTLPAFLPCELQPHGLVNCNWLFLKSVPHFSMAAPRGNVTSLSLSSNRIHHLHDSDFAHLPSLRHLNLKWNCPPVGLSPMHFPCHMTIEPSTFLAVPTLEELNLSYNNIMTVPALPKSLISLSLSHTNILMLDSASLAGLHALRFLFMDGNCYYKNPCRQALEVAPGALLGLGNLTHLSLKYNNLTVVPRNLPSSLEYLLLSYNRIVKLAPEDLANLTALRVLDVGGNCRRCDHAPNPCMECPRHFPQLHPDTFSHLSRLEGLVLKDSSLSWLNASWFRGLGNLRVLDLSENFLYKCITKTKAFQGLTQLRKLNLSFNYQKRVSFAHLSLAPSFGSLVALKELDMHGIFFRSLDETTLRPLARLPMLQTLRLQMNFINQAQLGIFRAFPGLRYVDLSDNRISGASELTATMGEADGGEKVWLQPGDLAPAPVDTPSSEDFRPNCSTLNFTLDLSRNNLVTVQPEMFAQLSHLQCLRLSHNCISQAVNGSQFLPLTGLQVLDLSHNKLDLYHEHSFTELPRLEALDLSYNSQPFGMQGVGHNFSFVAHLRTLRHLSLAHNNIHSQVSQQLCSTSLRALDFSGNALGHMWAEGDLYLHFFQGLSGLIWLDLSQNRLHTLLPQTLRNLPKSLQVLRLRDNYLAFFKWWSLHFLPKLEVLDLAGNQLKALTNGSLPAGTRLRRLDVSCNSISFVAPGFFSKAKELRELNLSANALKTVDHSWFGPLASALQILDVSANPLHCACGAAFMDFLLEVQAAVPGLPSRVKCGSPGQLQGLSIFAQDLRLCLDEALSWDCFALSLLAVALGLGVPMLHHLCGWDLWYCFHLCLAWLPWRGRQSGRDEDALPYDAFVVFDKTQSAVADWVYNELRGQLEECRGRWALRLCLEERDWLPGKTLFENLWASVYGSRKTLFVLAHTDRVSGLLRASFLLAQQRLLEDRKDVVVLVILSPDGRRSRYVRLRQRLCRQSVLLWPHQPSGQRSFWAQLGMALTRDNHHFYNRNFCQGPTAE
Outline: (§1)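 HEK-Blue cells overexpressing the respective receptor, with an NF-κB/AP-1-driven SEAP reporter, were pre-treated with compound (0.05 nM–50 μM) for 30 min at room temperature. Stimulation used gardiquimod 7.5 μM (TLR7), R848 15.9 μM (TLR8) or ODN2006 5 nM (TLR9); SEAP was read after 22 h at 37 °C as percent inhibition.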

human TLR7 = target: T2, human TLR7 (Homo sapiens, UniProt Q9NYK1); assay: TLR7 inhibition reporter assay (HEK-Blue cells, secreted embryonic alkaline phosphatase reporter); conditions: HEK-Blue cells overexpressing human TLR7, stimulated with gardiquimod 7.5 μM; read-out: TLR 7 IC50
T2 construct: host or cells: HEK-Blue cells (HEK293-derived reporter line)
T2 sequence (Q9NYK1 27-1049): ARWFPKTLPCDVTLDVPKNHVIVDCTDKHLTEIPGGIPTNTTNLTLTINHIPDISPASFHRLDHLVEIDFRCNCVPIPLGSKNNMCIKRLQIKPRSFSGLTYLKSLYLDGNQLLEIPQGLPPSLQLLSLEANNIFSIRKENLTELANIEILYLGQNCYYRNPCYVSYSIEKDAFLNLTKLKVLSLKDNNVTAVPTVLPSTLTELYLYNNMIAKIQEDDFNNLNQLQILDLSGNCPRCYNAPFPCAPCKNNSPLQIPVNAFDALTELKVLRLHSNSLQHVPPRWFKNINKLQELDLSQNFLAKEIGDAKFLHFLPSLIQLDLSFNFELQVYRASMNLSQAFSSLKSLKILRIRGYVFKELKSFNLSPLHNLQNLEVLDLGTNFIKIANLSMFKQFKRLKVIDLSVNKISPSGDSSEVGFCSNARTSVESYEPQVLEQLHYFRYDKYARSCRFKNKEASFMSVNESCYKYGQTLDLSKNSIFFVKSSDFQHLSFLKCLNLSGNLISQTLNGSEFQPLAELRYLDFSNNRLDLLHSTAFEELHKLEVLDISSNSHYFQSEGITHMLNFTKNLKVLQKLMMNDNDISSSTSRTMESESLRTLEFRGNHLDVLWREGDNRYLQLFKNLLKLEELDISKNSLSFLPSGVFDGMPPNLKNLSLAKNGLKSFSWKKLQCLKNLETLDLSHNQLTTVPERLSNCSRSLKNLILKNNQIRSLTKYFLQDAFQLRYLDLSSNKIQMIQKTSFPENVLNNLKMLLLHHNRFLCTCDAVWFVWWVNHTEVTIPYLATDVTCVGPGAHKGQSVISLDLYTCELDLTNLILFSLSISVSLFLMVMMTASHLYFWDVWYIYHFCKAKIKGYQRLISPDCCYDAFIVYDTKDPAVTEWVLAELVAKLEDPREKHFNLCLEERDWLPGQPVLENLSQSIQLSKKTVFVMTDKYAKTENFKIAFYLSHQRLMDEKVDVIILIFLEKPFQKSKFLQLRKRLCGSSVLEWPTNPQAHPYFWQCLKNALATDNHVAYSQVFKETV
Outline: as §1

human TLR8 = target: T3, human TLR8 (Homo sapiens, UniProt Q9NR97); assay: TLR8 inhibition reporter assay (HEK-Blue cells, secreted embryonic alkaline phosphatase reporter); conditions: HEK-Blue cells overexpressing human TLR8, stimulated with R848 15.9 μM; read-out: TLR 8 IC50
T3 construct: host or cells: HEK-Blue cells (HEK293-derived reporter line)
T3 sequence (Q9NR97 27-1041): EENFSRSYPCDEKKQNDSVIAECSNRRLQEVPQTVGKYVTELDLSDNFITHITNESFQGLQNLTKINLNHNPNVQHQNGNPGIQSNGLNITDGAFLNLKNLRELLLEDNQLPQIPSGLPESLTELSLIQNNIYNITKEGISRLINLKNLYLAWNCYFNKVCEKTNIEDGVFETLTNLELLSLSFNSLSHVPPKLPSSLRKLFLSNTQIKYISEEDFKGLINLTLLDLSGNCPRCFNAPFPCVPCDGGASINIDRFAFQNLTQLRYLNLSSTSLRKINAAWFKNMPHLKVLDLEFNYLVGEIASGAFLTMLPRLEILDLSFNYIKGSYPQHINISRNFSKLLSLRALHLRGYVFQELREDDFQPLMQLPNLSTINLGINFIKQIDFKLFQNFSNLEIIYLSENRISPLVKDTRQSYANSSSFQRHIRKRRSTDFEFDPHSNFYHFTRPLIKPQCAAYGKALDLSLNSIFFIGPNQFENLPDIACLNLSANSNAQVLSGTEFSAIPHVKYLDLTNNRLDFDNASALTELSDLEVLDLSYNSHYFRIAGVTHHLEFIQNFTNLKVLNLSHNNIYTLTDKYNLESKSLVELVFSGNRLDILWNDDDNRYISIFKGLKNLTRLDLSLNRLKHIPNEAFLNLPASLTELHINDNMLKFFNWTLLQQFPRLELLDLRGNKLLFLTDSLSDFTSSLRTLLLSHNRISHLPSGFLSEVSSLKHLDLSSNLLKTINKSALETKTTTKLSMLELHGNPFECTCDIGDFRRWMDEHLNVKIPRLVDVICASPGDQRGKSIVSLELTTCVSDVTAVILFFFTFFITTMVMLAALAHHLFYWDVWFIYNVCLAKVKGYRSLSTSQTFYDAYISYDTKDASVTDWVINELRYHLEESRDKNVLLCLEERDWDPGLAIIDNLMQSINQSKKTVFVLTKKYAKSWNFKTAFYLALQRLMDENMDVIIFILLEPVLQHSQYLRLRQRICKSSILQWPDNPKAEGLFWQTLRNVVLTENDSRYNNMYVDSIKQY
Outline: as §1

[1] = 22 hour incubation, reporter readout

Row | IC50 (human TLR9; [1]) | IC50 (human TLR7) | IC50 (human TLR8) | IC50 (human TLR9; read-out: TLR 9 IC50) | SMILES
1 | 33 nM | 5000 nM | > 50000 nM |  | COc1ccc(-c2nc3c(C)cc(C4CCN(C5CCN(C(C)C)CC5)CC4)cc3[nH]2)cc1OC [Example 11, 2-(3,4-dimethoxyphenyl)-6-(1′-isopropyl-[1,4′-bipiperidin]-4-yl)-4-methyl-1H-benzo[d]imidazole]
2 | 620 nM | > 50000 nM | > 50000 nM | 617 nM | COc1ccc(-c2nc3c(C)cc(C4CCN(C5CCNCC5)CC4)cc3[nH]2)cc1OC [Example 13, 6-([1,4′-bipiperidin]-4-yl)-2-(3,4-dimethoxyphenyl)-4-methyl-1H-benzo[d]imidazole tris(2,2,2-trifluoroacetate)]
3 | 510 nM | > 50000 nM | > 50000 nM | 509 nM | COc1ccc(-c2nc3c(C)cc(C4CCN(C5CCN(C(=O)C(C)C)CC5)CC4)cc3[nH]2)cc1OC [Example 14, 1-(4-(2-(3,4-dimethoxyphenyl)-4-methyl-1H-benzo[d]imidazol-6-yl)-[1,4′-bipiperidin]-1′-yl)-2-methylpropan-1-one]
4 | 19 nM | 7100 nM | > 50000 nM |  | COc1ccc(-c2nc3c(C)cc(C4CCN(C5CCN(CC(C)C)CC5)CC4)cc3n2C)cc1OC [Example 15, 2-(3,4-dimethoxyphenyl)-6-(1′-isobutyl-[1,4′-bipiperidin]-4-yl)-1,4-dimethyl-1H-benzo[d]imidazole tris(2,2,2-trifluoroacetate)]
5 | 48 nM | 3000 nM | > 50000 nM |  | COc1ccc(-c2nc3c(C)cc(C4CCN(C5CCN(C(C)C)CC5)CC4)cc3[nH]2)cc1F [Example 24, 2-(3-fluoro-4-methoxyphenyl)-6-(1′-isopropyl-[1,4′-bipiperidin]-4-yl)-4-methyl-1H-benzo[d]imidazole]
6 | 160 nM | 3000 nM | > 50000 nM | 164 nM | Cc1cc(C2CCN(C3CCN(CC(C)C)CC3)CC2)cc2[nH]c(-c3ccc4nccn4c3)nc12 [Example 25, 2-(imidazo[1,2-a]pyridin-6-yl)-6-(1′-isobutyl-[1,4′-bipiperidin]-4-yl)-4-methyl-1H-benzo[d]imidazole]
7 | 130 nM | 32000 nM | > 50000 nM | 132 nM | COc1ccc(-c2nc3ccc(C4CCN(C5CCN(CC(C)C)CC5)CC4)cc3n2C)cc1OC [Example 26, 2-(3,4-dimethoxyphenyl)-6-(1′-isobutyl-[1,4′-bipiperidin]-4-yl)-1-methyl-1H-benzo[d]imidazole]
8 | 19 nM | 2700 nM | > 50000 nM | 19 nM | COc1ccc(-c2nc3ccc(C4CCN(C5CCN(CC(C)C)CC5)CC4)cc3[nH]2)cc1OC [Example 28, 2-(3,4-dimethoxyphenyl)-6-(1′-isobutyl-[1,4′-bipiperidin]-4-yl)-1H-benzo[d]imidazole]

More lines, now with the values behind:

Row | SMILES | IC50 (human TLR9; [1]) | IC50 (human TLR7) | IC50 (human TLR8) | IC50 (human TLR9; read-out: TLR 9 IC50)
9 | COc1ccc(-c2nc3c(C)cc(C4CCN(C5CC6(C5)CN(C(C)C)C6)CC4)cc3[nH]2)cc1OC [Example 12, 2-(3,4-dimethoxyphenyl)-6-(1-(2-isopropyl-2-azaspiro[3.3]heptan-6-yl)piperidin-4-yl)-4-methyl-1H-benzo[d]imidazole] | 60 nM | 22000 nM | > 50000 nM | 
10 | COc1ccc(-c2nc3c(C)cc(C4CCN(C5CC6(C5)CN(C(C)C)C6)CC4)cc3n2C)cc1OC [Example 16, 2-(3,4-dimethoxyphenyl)-6-(1-(2-isopropyl-2-azaspiro[3.3]heptan-6-yl)piperidin-4-yl)-1,4-dimethyl-1H-benzo[d]imidazole tris(2,2,2-trifluoroacetate)] | 100 nM | 10000 nM | > 50000 nM | 10.4 nM
11 | Cc1cc(C2CCN(C3CCN(C(C)C)CC3)CC2)cc2c1nc(-c1ccc(S(C)(=O)=O)cc1)n2C [Example 22, 6-(1′-isopropyl-[1,4′-bipiperidin]-4-yl)-1,4-dimethyl-2-(4-(methylsulfonyl)phenyl)-1H-benzo[d]imidazole] | 7.6 nM | 24000 nM | > 50000 nM | 
12 | COc1ccc(-c2nc3c(C)cc(C4CCN(C5CCN(C(C)C)CC5)CC4)cc3n2C)cc1F [Example 23, 2-(3-fluoro-4-methoxyphenyl)-6-(1′-isopropyl-[1,4′-bipiperidin]-4-yl)-1,4-dimethyl-1H-benzo[d]imidazole] | 160 nM | 8800 nM | > 50000 nM | 159 nM
13 | COc1ccc(-c2nc3ccc(C4CCN(C5CCN(C6CC6)CC5)CC4)cc3n2C)cc1OC [Example 27, 6-(1′-cyclopropyl-[1,4′-bipiperidin]-4-yl)-2-(3,4-dimethoxyphenyl)-1-methyl-1H-benzo[d]imidazole] | 110 nM | 2400 nM | > 50000 nM | 106 nM
